From PubChem BioAssay (NCI)
Several values for one entry are separate records, joined by “and”; a condition that tells them apart may be missing. Equal values may be shown once.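 A five-concentration, 48-hour dose response in 96-well plates underlies each endpoint, interpolated linearly between surrounding concentrations. GI50 = concentration required for 50% inhibition of growth. At the TGI there is no net growth.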

Legend:
Assay in all cases: inhibition of tumour cell growth, NCI panel, 48 h
UO-31 renal = test system: UO-31 renal
CAKI-1 renal = test system: CAKI-1 renal
SK-OV-3 ovarian = test system: SK-OV-3 ovarian
MDA-MB-231 breast = test system: MDA-MB-231 breast
OVCAR-3 ovarian = test system: OVCAR-3 ovarian
OVCAR-8 ovarian = test system: OVCAR-8 ovarian
UACC-62 melanoma = test system: UACC-62 melanoma
HL-60(TB) leukemia = test system: HL-60(TB) leukemia
U251 CNS = test system: U251 CNS
SNB-19 CNS = test system: SNB-19 CNS
786-0 renal = test system: 786-0 renal
HOP-92 NSCLC = test system: HOP-92 NSCLC
HCT-15 colon = test system: HCT-15 colon
SK-MEL-2 melanoma = test system: SK-MEL-2 melanoma
SF-295 CNS = test system: SF-295 CNS
HCC-2998 colon = test system: HCC-2998 colon
SR leukemia = test system: SR leukemia
CCRF-CEM leukemia = test system: CCRF-CEM leukemia
NCI-H522 lung = test system: NCI-H522 lung
MOLT-4 leukemia = test system: MOLT-4 leukemia
A549 NSCLC = test system: A549 NSCLC
T-47D breast = test system: T-47D breast
MALME-3M melanoma = test system: MALME-3M melanoma
NCI-H460 lung = test system: NCI-H460 lung
RXF 393 renal = test system: RXF 393 renal
KM12 colon = test system: KM12 colon
OVCAR-5 ovarian = test system: OVCAR-5 ovarian
DU-145 prostate = test system: DU-145 prostate
K-562 leukemia = test system: K-562 leukemia
HS 578T breast = test system: HS 578T breast

What does the source list for `C=CC(=O)Nc1cc2c(Nc3ccc(F)c(Cl)c3)ncnc2cc1OCCCN1CCOCC1`?
TGI (UO-31 renal): 12.9 µM and > 8.65 µM; TGI (CAKI-1 renal): 2.67 µM and > 10 µM; GI50 (SK-OV-3 ovarian): 0.0791 µM and 0.127 µM; TGI (SK-OV-3 ovarian): 4.1 µM and > 9.32 µM; GI50 (MDA-MB-231 breast): 1.74 µM and 2.32 µM; TGI (MDA-MB-231 breast): 4.71 µM and 9.93 µM; GI50 (OVCAR-3 ovarian): 1.52 µM and 1.3 µM; TGI (OVCAR-3 ovarian): 4.63 µM and > 8.9 µM; GI50 (OVCAR-8 ovarian): 1.77 µM and 2.54 µM; TGI (OVCAR-8 ovarian): 6.67 µM and > 10 µM; GI50 (UACC-62 melanoma): 1.77 µM and 2.19 µM; TGI (UACC-62 melanoma): 4.48 µM and > 7.71 µM; GI50 (HL-60(TB) leukemia): 2 µM and 1.73 µM; TGI (HL-60(TB) leukemia): 4.88 µM and 7.33 µM; GI50 (U251 CNS): 3.57 µM and > 6.22 µM; TGI (U251 CNS): 14.9 µM and > 10 µM; GI50 (SNB-19 CNS): 2.53 µM and > 6.7 µM; TGI (SNB-19 CNS): 14.7 µM and > 10 µM; GI50 (786-0 renal): 2.04 µM and 3.04 µM; TGI (786-0 renal): 10.9 µM and > 10 µM; GI50 (HOP-92 NSCLC): 0.534 µM and 0.551 µM; TGI (HOP-92 NSCLC): 2.49 µM and 5.9 µM; GI50 (HCT-15 colon): 1.4 µM and 2.17 µM; TGI (HCT-15 colon): 3.6 µM and > 6.04 µM; GI50 (SK-MEL-2 melanoma): 1.96 µM and 2.17 µM; TGI (SK-MEL-2 melanoma): 3.79 µM and > 6.51 µM; GI50 (SF-295 CNS): 4.12 µM; TGI (SF-295 CNS): 17.4 µM and > 10 µM; GI50 (HCC-2998 colon): 1.82 µM and 2.67 µM; TGI (HCC-2998 colon): 3.46 µM and > 6.08 µM; GI50 (SR leukemia): 1.72 µM and 2.3 µM; TGI (SR leukemia): > 21 µM and 6.51 µM; GI50 (CCRF-CEM leukemia): 2.19 µM and 2.63 µM; TGI (CCRF-CEM leukemia): > 27.4 µM; GI50 (NCI-H522 lung): 0.546 µM and 0.119 µM; TGI (NCI-H522 lung): 2.37 µM and 1.98 µM; GI50 (MOLT-4 leukemia): 1.85 µM and 2.87 µM; TGI (MOLT-4 leukemia): 5.18 µM and > 9.25 µM; GI50 (A549 NSCLC): 2.37 µM and 5.1 µM; TGI (A549 NSCLC): 17 µM and > 10 µM; GI50 (T-47D breast): 0.0677 µM and 0.182 µM; TGI (T-47D breast): 18.7 µM and > 10 µM; GI50 (MALME-3M melanoma): 2.41 µM and 6.17 µM; TGI (MALME-3M melanoma): 5.84 µM and > 10 µM; GI50 (NCI-H460 lung): 3.65 µM and 5.27 µM; TGI (NCI-H460 lung): 15.4 µM and > 10 µM; GI50 (RXF 393 renal): 1.32 µM and 1.88 µM; TGI (RXF 393 renal): 2.82 µM and 6.23 µM; GI50 (KM12 colon): 3.18 µM and 5.3 µM; TGI (KM12 colon): 11.9 µM and > 10 µM; GI50 (OVCAR-5 ovarian): 0.879 µM and 5.82 µM; TGI (OVCAR-5 ovarian): 16.3 µM and > 10 µM; GI50 (DU-145 prostate): 0.159 µM and 0.741 µM; TGI (DU-145 prostate): 12.2 µM and > 10 µM; GI50 (K-562 leukemia): 1.91 µM and 2.84 µM; TGI (K-562 leukemia): 14.5 µM and > 10 µM; GI50 (HS 578T breast): 2.05 µM and 2.21 µM; TGI (HS 578T breast): 7.21 µM and > 10 µM
